Source: publication PMC6624388 (British Journal of Clinical Pharmacology, 2019)
In brackets after ≈: the same amount, converted by molar mass. Several values for one entry are separate records, joined by “and”; a condition that tells them apart may be missing. Identical values can stand only once. Like-named read-outs stand apart in the source and are kept apart here.

Key:
[1] = Safety assessments in Parts 1 and 2; assay type: in vivo, human; settings: both parts, healthy volunteers
[2] = assay type: in vivo, human
[3] = Part 2 mass balance; assay type: in vivo, human
[4] = Solubility in water and other physiological relevant media; assay type: physicochemical
[5] = assay type: in vivo, human; remark: listed apart in the source
[6] = tested on: tumour growth; settings: in combination with anti‐PD‐L1, preclinical models; cited from earlier work
[7] = Stability of navoximod in human plasma; assay type: in vitro ADME; settings: five freeze–thaw cycles; at least 110 days at −10°C to −30°C and −60°C to −80°C; 24 h at room temperature
[8] = tested on: UGTs; settings: ref unpublished results; cited from earlier work
[9] = cited from earlier work
[10] = Part 2, oral 200 mg/600 μCi [14C]-navoximod

- total IV clearance relative to blood flow ([2]; IV 5 mg): ~ 71 % of blood flow
- CL/F (apparent oral clearance) ([2]; Part 1, healthy volunteers, oral 200 mg tablet, fasted, n = 16, geometric mean (geometric CV%)): 112 L/h and 112 (31.4) L/h
- AUC(0-inf) ([2]; human, plasma, iv, 5 mg): 80.6 ng·h/mL
- AUC(0-t) ([2]; human, plasma, iv, 5 mg): 79.1 ng·h/mL
- Cmax ([2]; human, plasma, iv, 5 mg): 114 ng/mL
- Tmax ([2]; human, plasma, iv, 5 mg): 5 min
- Vd ([2]; human, plasma, iv, 5 mg): 1120 L
- clearance ([2]; human, plasma, iv, 5 mg): 1030 mL/min
- half-life ([2]; human, plasma, iv, 5 mg): 12.6 h
- bioavailability ([2]; human, plasma, oral, 200 mg): 55.5%
- AUC(0-inf) ([2]; human, plasma, po, 200 mg): 1790 ng·h/mL
- AUC(0-t) ([2]; human, plasma, po, 200 mg): 1770 ng·h/mL
- Cmax ([2]; human, plasma, po, 200 mg): 683 ng/mL
- Vd/F ([2]; human, plasma, po, 200 mg): 1780 L
- half-life ([2]; human, plasma, po, 200 mg): 11 h
- recovery of total radioactivity in urine ([3]; % of administered dose, mean (± SD), oral 200 mg/600 μCi [14C]-navoximod): 80.4%
- navoximod as share of plasma total radioactivity, geometric mean AUC0‐∞ ratio [3, 10]: 4.21%
- navoximod as share of plasma total radioactivity, geometric mean C max ratio [3, 10]: 10.6%
- geometric mean whole blood to plasma AUC0‐∞ ratio for total radioactivity ([3]; Part 2, total radioactivity (parent and metabolites)): 0.965
- Fh ([3]; assuming Fg = 1): approximately 0.66
- extrahepatic clearance ([3]; estimated): 31.2 L/h
- total radioactivity recovered in excreta within the first 72 h ([3]; first 72 h, oral 200 mg/600 μCi [14C]-navoximod): 85.0%
- Fh * Fg ([3]; from F and Fa): 0.66
- AUC(0-inf) ([3]; human, plasma, po, 200 mg): 1540 ng·h/mL
- AUC(0-t) ([3]; human, plasma, po, 200 mg): 1510 ng·h/mL
- Cmax ([3]; human, plasma, po, 200 mg): 464 ng/mL
- Vd/F ([3]; human, plasma, po, 200 mg): 1680 L
- half-life ([3]; human, plasma, po, 200 mg): 9.41 h
- CL renal ([3]; human, urine and plasma, oral, 200 mg): 20.3 mL/min
- hepatic clearance (CLhep = [1 − Fh] * Qh) ([3]; in vivo): 29.6 L/h
- fraction of metabolism (fm) ([3]; oral 200 mg): 0.98
- hepatic first pass extraction ([3]; oral 200 mg): ~ 34%
- fraction of the dose absorbed (Fa) ([3]; sum of radioactivity in urine and metabolites in faeces, as fraction): 0.841
- solubility [4]: 200 mg/mL (≈ 632 mM)
- AUC(0-t) ([5]; human, plasma, oral, 200 mg): 4.4 µM·h
- Total (urine + feces) % of dose ([5]; mean of eight subjects, oral 200 mg/600 μCi [14C]-navoximod): 5.45 % of dose
- Plasma % of TRA (share of total drug-derived exposure) ([5]; pooled 0–48 h plasma, n = 8, adjusted with extraction recovery, oral 200 mg/600 μCi [14C]-navoximod): 7.00%
- Feces % of dose ([5]; pooled faeces, mean of eight subjects, oral 200 mg/600 μCi [14C]-navoximod): 3.79 % of dose
- Urine % of dose ([5]; pooled urine, mean of eight subjects, oral 200 mg/600 μCi [14C]-navoximod): 1.66 % of dose
- stability in human plasma [7]: stable
Structure (SMILES): O[C@H](C[C@H]1c2c(F)cccc2-c2cncn21)[C@H]1CC[C@H](O)CC1 [navoximod]
- tolerability ([1]; all IV (5 mg) and oral (200 mg) doses): generally well tolerated
- severity of adverse events ([1]; all IV and oral doses): mild
- effect on tumour growth [6]: inhibits tumour growth compared to either treatment alone
- major UGTs responsible for navoximod metabolism [8]: UGT1A9 and 2B7
- mean accumulation index ([9]; BID dosing): approximately 1.7
- half‐life ([9]; clinical studies, monotherapy or with atezolizumab): approximately 12 hours
- dose proportionality of exposure ([9]; dose range of 50–1000 mg): dose‐proportional increases in exposure
- tolerability of single and twice daily oral doses ([9]; monotherapy, up to 1000 mg, cancer patients): well tolerated
